Experimental data reported in ChEMBL document CHEMBL1134909, “A 5-fluorodeoxyuridine prodrug as targeted therapy for prostate cancer” (Bioorg Med Chem Lett, 2002).
*1 amine or outer side, *2 acyl side, *3 side chain or, on linkers, in order; H or OH if unused. Where a SMILES comes first, the peptide text is derived from it. [ ]: non-standard residue; d: D form. The star is where a group is joined. X1 = O=c1[nH]c(=O)n([C@H]2C[C@H](O)[C@@H](CO*)O2)cc1F; Morpholide = C1CN(*)CCO1; Aib = CC(C)(N)C(=O)O; CO = O=C([*:1])[*:2]

Experiments:
LNCaP = test: Cytotoxic concentration in prostate specific antigen (PSA) producing human LNCaP cells; type: functional, cell-based
TSU = test: Cytotoxic concentration in non prostate specific antigen (PSA) producing human TSU cells; type: functional, cell-based

Row | Compound | IC50 (LNCaP) [µM] | IC50 (TSU) [µM]
1 | O=c1[nH]c(=O)n([C@H]2C[C@H](O)[C@@H](CO)O2)cc1F [FLOXURIDINE] | 0.0692 | 0.058
2 | CC(C)C[C@H](NC(=O)[C@H](CCCCN)NC(=O)[C@H](CO)NC(=O)[C@H](CO)NC(=O)[C@H](Cc1c[nH]cn1)NC(=O)N1CCOCC1)C(=O)N[C@@H](CCC(N)=O)C(=O)N[C@@H](CC(C)C)C(=O)NC(C)(C)C(=O)OC[C@H]1O[C@@H](n2cc(F)c(=O)[nH]c2=O)C[C@@H]1O ({Morpholide-CO}-HSSKLQL[Aib]-X1) | 0.117 | 7.2
